Test results: ChEMBL document CHEMBL3885861, “Open TG-GATES”

Species on record: Rattus norvegicus
Assay: Open TG-GATES - Regimen: Single
Assay type: toxicity, organism-based, Sprague-Dawley
Set-up: regimen Single, gender Male, age 6 weeks
Conditions: in vivo, po, 15 mg/kg, route gavage, dose level Low; for APTT / Bas / Eos / Fbg / Hb / Ht / Lym / MCH / MCHC / MCV / Mono / Neu / PT / Plat / RBC / Ret / WBC: tissue Blood; for KIDNEY_L / KIDNEY_R / KIDNEY_TOTAL: tissue Kidney; for LIVER: tissue Liver; for A/G / ALP / ALT / AST / BUN / CRE / Ca / Cl / DBIL / GLC / IP / K / LDH / Na / PL / RALB / TBIL / TC / TG / TP / gamma-GTP: tissue Plasma

## CN(C)CCC=C1c2ccccc2CCc2ccccc21 [AMITRIPTYLINE]
3 h
  TERMINAL_BW: 194.5 g
  APTT: 16.2 s
  Bas: 0%
  Eos: 1%
  Fbg: 267.4 mg/dL
  Hb: 12.8 g/dL
  Ht: 39.3%
  Lym: 73%
  MCH: 21.2 pg
  MCHC: 32.6%
  MCV: 65 fL
  Mono: 3%
  Neu: 22.2%
  PT: 16.2 s
  Plat: 114.1 x10_4/uL
  RBC: 604.8 x10_4/ul
  Ret: 8.7%
  WBC: 91.4 x10_2/uL
  KIDNEY_L: 0.8 g
  KIDNEY_R: 0.8 g
  KIDNEY_TOTAL: 1.6 g
  LIVER: 8.5 g
  A/G: 0.8
  ALP: 1536.8 IU/L
  ALT: 54.2 IU/L
  AST: 74.4 IU/L
  BUN: 10 mg/dL
  CRE: 0.2 mg/dL
  Ca: 11.1 mg/dL
  Cl: 106.2 meq/L
  DBIL: 0.01 mg/dL
  GLC: 181.6 mg/dL
  IP: 8.8 mg/dL
  K: 4.3 meq/L
  LDH: 83.8 IU/L
  Na: 143 meq/L
  PL: 142 mg/dL
  RALB: 2.5 g/dL
  TBIL: 0.058 mg/dL
  TC: 80.2 mg/dL
  TG: 52 mg/dL
  TP: 5.4 g/dL
  gamma-GTP: 1 IU/L
6 h
  TERMINAL_BW: 191.5 g
  APTT: 16 s
  Bas: 0%
  Eos: 1%
  Fbg: 277.4 mg/dL
  Hb: 13 g/dL
  Ht: 39.9%
  Lym: 77.4%
  MCH: 21.1 pg
  MCHC: 32.6%
  MCV: 64.6 fL
  Mono: 2.6%
  Neu: 18.4%
  PT: 15.9 s
  Plat: 120 x10_4/uL
  RBC: 617.8 x10_4/ul
  Ret: 9.4%
  WBC: 75 x10_2/uL
  KIDNEY_L: 0.8 g
  KIDNEY_R: 0.8 g
  KIDNEY_TOTAL: 1.6 g
  LIVER: 7.8 g
  A/G: 0.8
  ALP: 1444.2 IU/L
  ALT: 46.4 IU/L
  AST: 77.6 IU/L
  BUN: 8.8 mg/dL
  CRE: 0.2 mg/dL
  Ca: 10.6 mg/dL
  Cl: 106.6 meq/L
  DBIL: 0.014 mg/dL
  GLC: 175.8 mg/dL
  IP: 9.2 mg/dL
  K: 4.2 meq/L
  LDH: 58.4 IU/L
  Na: 143 meq/L
  PL: 144.4 mg/dL
  RALB: 2.4 g/dL
  TBIL: 0.07 mg/dL
  TC: 84.4 mg/dL
  TG: 43.8 mg/dL
  TP: 5.3 g/dL
  gamma-GTP: 1 IU/L
9 h
  TERMINAL_BW: 192 g
  APTT: 16.6 s
  Bas: 0%
  Eos: 0.8%
  Fbg: 262.6 mg/dL
  Hb: 12.8 g/dL
  Ht: 39.3%
  Lym: 67.4%
  MCH: 21.5 pg
  MCHC: 32.6%
  MCV: 65.8 fL
  Mono: 2.4%
  Neu: 29%
  PT: 15.7 s
  Plat: 117.7 x10_4/uL
  RBC: 597 x10_4/ul
  Ret: 9.3%
  WBC: 87.8 x10_2/uL
  KIDNEY_L: 0.9 g
  KIDNEY_R: 0.9 g
  KIDNEY_TOTAL: 1.7 g
  LIVER: 7.4 g
  A/G: 0.9
  ALP: 1309.6 IU/L
  ALT: 44.6 IU/L
  AST: 71.2 IU/L
  BUN: 8.4 mg/dL
  CRE: 0.2 mg/dL
  Ca: 10.7 mg/dL
  Cl: 106.6 meq/L
  DBIL: 0.006 mg/dL
  GLC: 165.2 mg/dL
  IP: 10.4 mg/dL
  K: 3.9 meq/L
  LDH: 69.2 IU/L
  Na: 142.8 meq/L
  PL: 140.4 mg/dL
  RALB: 2.5 g/dL
  TBIL: 0.062 mg/dL
  TC: 78.6 mg/dL
  TG: 33.2 mg/dL
  TP: 5.4 g/dL
  gamma-GTP: 1 IU/L
24 h
  TERMINAL_BW: 206.4 g
  APTT: 16 s
  Bas: 0%
  Eos: 1%
  Fbg: 259.2 mg/dL
  Hb: 12.8 g/dL
  Ht: 38.8%
  Lym: 77.8%
  MCH: 21.6 pg
  MCHC: 32.9%
  MCV: 65.5 fL
  Mono: 3%
  Neu: 17.4%
  PT: 16.4 s
  Plat: 112.7 x10_4/uL
  RBC: 592.4 x10_4/ul
  Ret: 8.1%
  WBC: 89.3 x10_2/uL
  KIDNEY_L: 0.9 g
  KIDNEY_R: 0.9 g
  KIDNEY_TOTAL: 1.8 g
  LIVER: 9.4 g
  A/G: 0.8
  ALP: 1812.6 IU/L
  ALT: 52.4 IU/L
  AST: 78.6 IU/L
  BUN: 14 mg/dL
  CRE: 0.2 mg/dL
  Ca: 10.9 mg/dL
  Cl: 107 meq/L
  DBIL: 0.018 mg/dL
  GLC: 179.2 mg/dL
  IP: 7.3 mg/dL
  K: 4.2 meq/L
  LDH: 74.2 IU/L
  Na: 143 meq/L
  PL: 146.8 mg/dL
  RALB: 2.6 g/dL
  TBIL: 0.056 mg/dL
  TC: 77.2 mg/dL
  TG: 82.2 mg/dL
  TP: 5.6 g/dL
  gamma-GTP: 1 IU/L
